Laboratory results reported in patent US8691993B2, “Piperidinyl naphthylacetic acids” (Hoffman-La Roche Inc., priority 2011, dated 2014).

biological target: human CRTH2 receptor (Homo sapiens (Human), UniProt Q9Y5Y4); test: Calcium Flux Assay Using Fluorometric Imaging Plate Reader (FLIPR); type: cell-based; settings: CHO-K1 cells transfected with G-alpha 16 and human CRTH2 receptor; DK-PGD2 ligand; 1 hour compound incubation
Method: Calcium Flux Assay Using Fluorometric Imaging Plate Reader (FLIPR)
CHO-K1 cells previously transfected with G-alpha 16 were subsequently transfected with the human CRTH2 receptor and the neomycin resistance gene. Following selection in 800 μg/mL G418 (geneticin), individual clones were assayed for their receptor expression based on staining with an anti human CRTH2 IgG, followed by assaying for their response to 13,14-dihydro-15-keto Prostaglandin D2 (DK-PDG2) (ligand) in the Ca^2+ Flux assay. Positive clones were then cloned by limiting dilution cloning. The transfected cells were cultured in Ham's F-12 medium supplemented with 10% fetal bovine serum, 2 mM glutamine, 100 U/mL penicillin/100 μg/mL streptomycin, 200 μg/mL hygromycin B, and 800 μg/mL G418 (geneticin). Cells were harvested with trypsin-EDTA (trypsin-ethylenediaminetetraacetic acid) and counted using ViaCount® reagent (from Guava Technologies, Inc. which contains two DNA-binding dyes that enable the reagent user to distinguish between viable and non-viable cells). The cell suspension volume was adjusted to 2.5×10^5 cells/mL with complete growth media. Aliquots of 50 μL were dispensed into BD Falcon™ 384 well black/clear microplates (from BD Biosciences, a division of Becton, Dickinson and Company) and the microplates were placed in a 37° C. CO2 incubator overnight. The following day, the microplates were used in the assay.
Loading Buffer containing dye (from the FLIPR® Calcium 3 Assay Kit from Molecular Devices, a division of MDS Analytical Technologies and MDS Inc.) was prepared by dissolving the contents of one bottle into 200 mL Hank's Balanced Salt Solution containing 20 mM HEPES (4-(2-hydroxyethyl)-1-piperazineethanesulfonic acid) and 2.5 mM probenecid. Growth media was removed from the cell plates and 25 μL of Hank's Balanced Salt Solution (HBSS) containing 20 mM HEPES, 0.05% BSA and 2.5 mM probenecid was added to each well followed by 25 μL of diluted dye using a Multidrop dispenser. The plates were then incubated for 1 hour at 37° C.
During the incubation, test compound plates were prepared by adding 90 μL of HBSS/20 mM HEPES/0.005% BSA buffer to the 2 μL of serial diluted compounds. To prepare serial diluted compounds, 20 mM stocks of compounds were dissolved in 100% DMSO. The compound dilution plate was set up as follows: well #1 received 5 μL of compound plus 10 μL of DMSO. Wells 2-10 received 10 μL of DMSO. 5 μL was mixed and transferred from well #1 into well #2. 1:3 serial dilutions were continued out 10 steps. 2 μL of diluted compound was transferred into duplicate wells of a 384 well “assay plate” and then 90 μL of buffer was added.
After incubation, both the cell and “assay plate” plates were brought to the fluorometric imaging plate reader (FLIPR®) and 20 μL of the diluted compounds were transferred to the cell plates by the FLIPR®. Plates were then incubated for 1 hour at room temperature. After the 1 hour incubation, plates were returned to the FLIPR® and 20 μL of 4.5× concentrated ligand was added to the cell plates. During the assay, fluorescence readings were taken simultaneously from all 384 wells of the cell plate every 1.5 seconds. Five readings were taken to establish a stable baseline, then 20 μL of sample was rapidly (30 μL/sec) and simultaneously added to each well of the cell plate. The fluorescence was continuously monitored before, during and after sample addition for a total elapsed time of 100 seconds. Responses (increase in peak fluorescence) in each well following agonist addition were determined. The initial fluorescence reading from each well, prior to ligand stimulation, was used as a zero baseline value for the data from that well. The responses were expressed as % inhibition of the buffer control. […]

Sequence of human CRTH2 receptor (Q9Y5Y4 whole entry): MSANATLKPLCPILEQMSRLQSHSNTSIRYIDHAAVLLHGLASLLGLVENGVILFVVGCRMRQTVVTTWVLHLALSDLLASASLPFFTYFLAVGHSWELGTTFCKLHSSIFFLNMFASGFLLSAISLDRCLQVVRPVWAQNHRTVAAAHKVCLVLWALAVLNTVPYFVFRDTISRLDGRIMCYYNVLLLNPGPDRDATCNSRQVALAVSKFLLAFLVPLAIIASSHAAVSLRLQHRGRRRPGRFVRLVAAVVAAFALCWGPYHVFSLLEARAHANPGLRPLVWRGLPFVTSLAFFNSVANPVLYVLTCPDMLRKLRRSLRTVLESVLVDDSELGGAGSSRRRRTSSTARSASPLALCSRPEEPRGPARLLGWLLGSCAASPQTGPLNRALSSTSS

IC50 [nM] | SMILES
18 | O=C(O)Cc1cc(C2CCN(S(=O)(=O)c3ccccc3)CC2)c2cc(F)ccc2c1 [Example 1, [4-(1-Benzenesulfonyl-piperidin-4-yl)-6-fluoro-naphthalen-2-yl]-acetic acid]
53 | Cc1ccc(S(=O)(=O)N2CCC(c3cc(CC(=O)O)cc4ccc(F)cc34)CC2)cc1 [Example 2, {6-Fluoro-4-[1-(toluene-4-sulfonyl)-piperidin-4-yl]-naphthalen-2-yl}-acetic acid]
104 | O=C(O)Cc1cc(C2CCN(S(=O)(=O)c3ccccn3)CC2)c2cc(F)ccc2c1 [Example 3, {6-Fluoro-4-[1-(pyridine-2-sulfonyl)-piperidin-4-yl]-naphthalen-2-yl}-acetic acid]
1740 | O=C(O)Cc1cc(C2CCN(S(=O)(=O)c3cccnc3)CC2)c2cc(F)ccc2c1 [Example 4, {6-Fluoro-4-[1-(pyridine-3-sulfonyl)-piperidin-4-yl]-naphthalen-2-yl}-acetic acid]
898 | O=C(O)Cc1cc(C2CCN(S(=O)(=O)c3ccncc3)CC2)c2cc(F)ccc2c1 [Example 5, {6-Fluoro-4-[1-(pyridine-4-sulfonyl)-piperidin-4-yl]-naphthalen-2-yl}-acetic acid]
2.5 | O=C(O)Cc1cc(C2CCN(S(=O)(=O)c3ccccc3Cl)CC2)c2cc(F)ccc2c1 [Example 6, {4-[1-(2-Chloro-benzenesulfonyl)-piperidin-4-yl]-6-fluoro-naphthalen-2-yl}-acetic acid]
95 | O=C(O)Cc1cc(C2CCN(S(=O)(=O)c3cccc(Cl)c3)CC2)c2cc(F)ccc2c1 [Example 7, {4-[1-(3-Chloro-benzenesulfonyl)-piperidin-4-yl]-6-fluoro-naphthalen-2-yl}-acetic acid]
42 | O=C(O)Cc1cc(C2CCN(S(=O)(=O)c3ccc(Cl)cc3)CC2)c2cc(F)ccc2c1 [Example 8, {4-[1-(4-Chloro-benzenesulfonyl)-piperidin-4-yl]-6-fluoro-naphthalen-2-yl}-acetic acid]
1150 | CS(=O)(=O)c1cccc(S(=O)(=O)N2CCC(c3cc(CC(=O)O)cc4ccc(F)cc34)CC2)c1 [Example 9, {6-Fluoro-4-[1-(3-methanesulfonyl-benzenesulfonyl)-piperidin-4-yl]-naphthalen-2-yl}-acetic acid]
3.5 | O=C(O)Cc1cc(C2CCN(S(=O)(=O)c3cc(Cl)ccc3Cl)CC2)c2cc(F)ccc2c1 [Example 10, {4-[1-(2,5-Dichloro-benzenesulfonyl)-piperidin-4-yl]-6-fluoro-naphthalen-2-yl}-acetic acid]
4.8 | O=C(O)Cc1cc(C2CCN(S(=O)(=O)c3ccc(Cl)cc3Cl)CC2)c2cc(F)ccc2c1 [Example 11, {4-[1-(2,4-Dichloro-benzenesulfonyl)-piperidin-4-yl]-6-fluoro-naphthalen-2-yl}-acetic acid]
404 | O=C(O)Cc1cc(C2CCN(S(=O)(=O)c3cc(Cl)cc(Cl)c3)CC2)c2cc(F)ccc2c1 [Example 12, {4-[1-(3,5-Dichloro-benzenesulfonyl)-piperidin-4-yl]-6-fluoro-naphthalen-2-yl}-acetic acid]
1350 | O=C(O)Cc1cc(C2CCN(S(=O)(=O)c3cc(C(F)(F)F)cc(C(F)(F)F)c3)CC2)c2cc(F)ccc2c1 [Example 13, {4-[1-(3,5-Bis-trifluoromethyl-benzenesulfonyl)-piperidin-4-yl]-6-fluoro-naphthalen-2-yl}-acetic acid]
